Laboratory results as given in the supplement of paper PMC10331698.
± gives the standard deviation of the averaged measurements.

Assays:
[1] = compound: O=S(=O)(OCC(F)(F)F)C(F)(F)C(F)(F)C(F)(F)C(F)(F)F [2,2,2-Trifluoroethyl perfluorobutanesulfonate]; assay: level (log10 ratio to DMSO vehicle control); higher = higher biomarker level / cell amount than vehicle control; settings: in DMSO
Method: (§1)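 BioMAP Diversity Plus panel of 12 human primary cell co-culture systems (3C, 4H, LPS, SAg, BT, BF4T, BE3C, CASM3C, HDF3CGF, KF3CT, MyoF, Mphg). Compounds were added 1 h before stimulation and left for 24 h (MyoF 48 h; BT 72 h for soluble read-outs or 6 d for IgG). Biomarkers were read by ELISA, cytotoxicity by SRB, PBMC viability and proliferation by Alamar Blue. Each well value was divided by the mean of 8 DMSO control wells on the same plate and log10 transformed; duplicate blinded samples were tested at 4 concentrations.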

[2] = compound: OCC(F)(F)C(F)(F)C(F)(F)C(F)(F)C(F)(F)C(F)(F)C(F)(F)C(F)(F)C(F)(F)C(F)(F)C(F)(F)F [11:1 Fluorotelomer alcohol]; assay: as above; settings: in DMSO
Method: as §1

Row | Test System | level (log10) ([1]; 6700 nM) | level (log10) ([1]; 20000 nM) | level (log10) ([1]; 60000 nM) | level (log10) ([2]; 1100 nM) | level (log10) ([2]; 3300 nM) | level (log10) ([2]; 10000 nM)
1 | 3C:CCL2/MCP-1 | 0.0095 ± 0.011 | 0.004 ± 0.035 | 0.023 ± 0.057 | -0.0005 ± 0.0064 | -0.007 ± 0.021 | 0.003 ± 0.04
2 | 3C:CD54/ICAM-1 | -0.006 ± 0.0028 | -0.0105 ± 0.0021 | -0.0095 ± 0.0064 | 0.011 ± 0.03 | 0.0305 ± 0.028 | 0.0385 ± 0.018
3 | 3C:CD62E/E-Selectin | -0.0085 ± 0.013 | -0.0385 ± 0.021 | -0.0045 ± 0.016 | -0.0125 ± 0.013 | 0.008 ± 0.0028 | 0.0155 ± 0.0078
4 | 3C:CD106/VCAM-1 | -0.0165 ± 0.012 | -0.016 ± 0.0085 | 0.0015 ± 0.0021 | 0.008 ± 0.016 | 0.007 | 0.022 ± 0.0099
5 | 3C:CD141/Thrombomodulin | -0.024 ± 0.018 | -0.041 ± 0.028 | -0.051 ± 0.016 | 0.0225 ± 0.021 | 0.0705 ± 0.00071 | 0.09 ± 0.02
6 | 3C:CD142/Tissue Factor | 0.0285 ± 0.046 | 0.011 ± 0.037 | -0.018 ± 0.034 | 0.028 ± 0.024 | 0.074 ± 0.034 | 0.0865 ± 0.0092
7 | BE3C:Keratin 8/18 | -0.0055 ± 0.005 | -0.0075 ± 0.015 | -0.009 ± 0.0085 | 0.0065 ± 0.04 | -0.016 ± 0.035 | 0.018 ± 0.025
8 | BE3C:MMP-1 | 0.01 ± 0.031 | 0.0165 ± 0.00071 | 0.0165 ± 0.00071 | -0.0275 ± 0.018 | -0.0685 ± 0.015 | -0.077
9 | BE3C:MMP-9 | -0.0355 ± 0.021 | -0.041 ± 0.033 | -0.061 ± 0.028 | -0.0475 ± 0.029 | -0.102 ± 0.0042 | -0.0735 ± 0.019
10 | BE3C:PAI-I | -0.0005 ± 0.011 | 0.003 ± 0.0085 | 0.014 ± 0.011 | -0.045 ± 0.057 | -0.0855 ± 0.054 | -0.0555 ± 0.07
11 | BE3C:SRB | 0 ± 0.0071 | 0.004 ± 0.0042 | 0.005 | -0.03 ± 0.014 | -0.0485 ± 0.005 | -0.0235 ± 0.0064
12 | BE3C:tPA | 0.0045 ± 0.021 | 0.028 ± 0.016 | 0.085 ± 0.031 | -0.0125 ± 0.011 | -0.033 ± 0.011 | -0.008 ± 0.016
13 | BE3C:uPA | -0.001 ± 0.0099 | -0.013 ± 0.0014 | -0.0135 ± 0.023 | -0.0155 ± 0.013 | -0.0405 ± 0.0078 | -0.0175 ± 0.0035
14 | CASM3C:CCL2/MCP-1 | -0.0155 ± 0.0035 | -0.0105 ± 0.005 | 0.0065 ± 0.0035 | -0.01 ± 0.024 | -0.0055 ± 0.012 | 0.012 ± 0.025
15 | CASM3C:CD87/uPAR | -0.047 ± 0.064 | -0.0215 ± 0.059 | -0.048 ± 0.033 | 0.0055 ± 0.025 | -0.004 ± 0.021 | 0.0085 ± 0.032
16 | CASM3C:CD106/VCAM-1 | -0.027 ± 0.014 | -0.038 ± 0.031 | -0.042 ± 0.083 | -0.004 ± 0.024 | 0 ± 0.023 | -0.0105 ± 0.019
17 | CASM3C:CD141/Thrombomodulin | -0.0045 ± 0.0021 | 0.008 ± 0.037 | 0.0045 ± 0.0064 | -0.0155 ± 0.012 | -0.012 ± 0.025 | -0.0155 ± 0.005
18 | CASM3C:CD142/Tissue Factor | 0.013 ± 0.011 | 0.0485 ± 0.0021 | 0.133 ± 0.052 | -0.013 ± 0.02 | -0.0225 ± 0.016 | -0.038 ± 0.02
19 | CASM3C:CXCL8/IL-8 | 0.0335 ± 0.0064 | 0.031 ± 0.048 | 0.024 ± 0.042 | -0.0025 ± 0.0035 | -0.006 | -0.007 ± 0.064
20 | CASM3C:CXCL9/MIG | -0.0035 ± 0.026 | -0.014 ± 0.047 | -0.072 ± 0.09 | 0.0005 ± 0.0035 | -0.002 ± 0.0028 | 0.014 ± 0.021

Row | Test System | level (log10) ([1]; 6700 nM) | level (log10) ([1]; 20000 nM) | level (log10) ([1]; 60000 nM) | level (log10) ([2]; 1100 nM) | level (log10) ([2]; 3300 nM) | level (log10) ([2]; 10000 nM)
21 | CASM3C:HLA-DR | 0.0015 ± 0.0064 | -0.0015 ± 0.0064 | 0.0125 ± 0.005 | 0.0075 ± 0.016 | 0.0015 ± 0.00071 | 0.0095 ± 0.0035
22 | CASM3C:IL-6 | -0.02 ± 0.033 | -0.0685 ± 0.0078 | -0.029 ± 0.024 | -0.0065 ± 0.00071 | -0.022 ± 0.025 | 0.005 ± 0.02
23 | CASM3C:LDLR | -0.019 ± 0.062 | -0.0255 ± 0.013 | -0.0135 ± 0.0035 | -0.0055 ± 0.0021 | -0.0095 ± 0.0064 | 0 ± 0.035
24 | CASM3C:M-CSF | -0.011 ± 0.0057 | 0.004 ± 0.0042 | 0.0365 ± 0.03 | -0.026 ± 0.044 | 0.006 ± 0.031 | 0.017 ± 0.0099
25 | CASM3C:PAI-I | -0.0075 ± 0.0092 | 0.0015 ± 0.00071 | 0.0035 ± 0.0021 | -0.001 ± 0.0071 | -0.0055 ± 0.005 | -0.0005 ± 0.015
26 | CASM3C:Proliferation | 0.0265 ± 0.0064 | -0.018 ± 0.027 | -0.026 ± 0.03 | 0.0145 ± 0.0078 | -0.0185 ± 0.005 | 0.0565 ± 0.0092
27 | CASM3C:SRB | -0.006 | -0.005 ± 0.0028 | -0.0055 ± 0.0064 | 0.0075 ± 0.005 | 0.0095 ± 0.0064 | 0.008 ± 0.0071
28 | CASM3C:Serum Amyloid A | -0.0625 ± 0.077 | -0.0375 ± 0.052 | 0.006 ± 0.031 | -0.0025 ± 0.044 | -0.0045 ± 0.0078 | 0.0045 ± 0.016
29 | HDF3CGF:CCL2/MCP-1 | -0.0125 ± 0.021 | 0.0255 ± 0.021 | -0.0205 ± 0.033 | 0.0305 ± 0.033 | 0.0075 ± 0.0064 | 0.0095 ± 0.015
30 | HDF3CGF:CD54/ICAM-1 | -0.0105 ± 0.018 | -0.0025 ± 0.022 | -0.0285 ± 0.028 | 0.001 ± 0.0071 | -0.0075 ± 0.021 | -0.012 ± 0.0014
31 | HDF3CGF:CD106/VCAM-1 | -0.022 ± 0.0099 | -0.05 ± 0.034 | -0.114 ± 0.037 | -0.075 ± 0.011 | -0.144 ± 0.013 | -0.069 ± 0.075
32 | HDF3CGF:CXCL8/IL-8 | 0.003 ± 0.0071 | 0.001 ± 0.0071 | 0.0125 ± 0.0064 | -0.002 ± 0.0057 | -0.007 | -0.001
33 | HDF3CGF:CXCL9/MIG | -0.0075 ± 0.016 | -0.011 ± 0.014 | -0.039 ± 0.0071 | 0.009 | -0.0145 ± 0.00071 | 0.009 ± 0.05
34 | HDF3CGF:CXCL10/IP-10 | -0.024 ± 0.0014 | -0.058 | -0.099 ± 0.0042 | -0.0435 ± 0.015 | -0.0725 ± 0.0064 | -0.039 ± 0.02
35 | HDF3CGF:CXCL11/I-TAC | -0.014 ± 0.016 | -0.0495 ± 0.00071 | -0.137 ± 0.016 | -0.0245 ± 0.03 | -0.0655 ± 0.005 | -0.0155 ± 0.04
36 | HDF3CGF:Collagen I | -0.0325 ± 0.016 | -0.0635 ± 0.04 | -0.047 ± 0.028 | 0.438 ± 0.0099 | 0.471 ± 0.03 | 0.394 ± 0.062
37 | HDF3CGF:Collagen III | -0.0265 ± 0.018 | -0.0345 ± 0.033 | -0.0995 ± 0.037 | 0.2 ± 0.0021 | 0.168 ± 0.057 | 0.171 ± 0.0042
38 | HDF3CGF:EGFR | -0.0215 ± 0.077 | -0.022 ± 0.09 | 0.047 ± 0.03 | 0.034 ± 0.024 | 0.044 ± 0.064 | 0.0275 ± 0.083
39 | HDF3CGF:M-CSF | -0.009 ± 0.0057 | 0.0105 ± 0.022 | 0.0195 ± 0.005 | 0.0115 ± 0.016 | 0.0095 ± 0.032 | -0.003 ± 0.021
40 | HDF3CGF:MMP-1 | 0.0125 ± 0.0078 | 0.022 ± 0.0085 | 0.0405 ± 0.0092 | -0.011 ± 0.0057 | -0.042 ± 0.0014 | -0.0255 ± 0.035
